{"source": "patent US12257238B2", "about": "“Magnesium biotinate compositions and methods of use” (Nutrition21, LLC, priority 2016, dated 2025)", "key": {"[1]": {"assay": "Stability of magnesium D-biotinate (storage, hygroscopicity, light)", "format": "physicochemical"}, "Liver cGMP": {"system": "Liver cGMP", "assay": "Liver cGMP in rats", "format": "in vivo, male Sprague-Dawley rats", "conditions": "30 days, mean"}, "[2]": {"assay": "Solubility of magnesium D-biotinate", "conditions": "for Solubility in water: compared with biotin"}, "[3]": {"assay": "Absorption study in rats: serum, liver and brain biotin", "conditions": "for Liver Biotin / Serum Biotin / Brain Biotin: 30 days, mean"}, "[4]": {"conditions": "cited from earlier work"}, "in vivo": {"assay": "in vivo", "conditions": "male, Sprague-Dawley, rat, serum, oral"}, "[5]": {"conditions": "0.01 mg/kg body weight, listed as MgB, 0.01 mg/kg"}, "[6]": {"conditions": "1 mg/kg body weight, listed as MgB, 1 mg/kg"}, "[7]": {"conditions": "100 mg/kg body weight, listed as MgB, 100 mg/kg"}, "[8]": {"conditions": "1 mg/kg body weight, listed as B, 1 mg/kg"}, "[9]": {"conditions": "100 mg/kg body weight, listed as B, 100 mg/kg"}}, "note": "Where two headings read alike, the source gives them in different places.", "data": [{"smiles": "O=C(O)CCCC[C@@H]1SC[C@@H]2NC(=O)N[C@@H]21", "note": "[magnesium D-biotinate]", "values": [{"measurement": "Storage stability", "setting": "[1]; 30 days at 40% relative humidity and 25° C.", "value": "stable"}, {"measurement": "Storage stability", "setting": "[1]; 30 days at 40% relative humidity and 25° C., listed as Magnesium biotinate", "value": "no signs of degradation"}, {"measurement": "Storage stability", "setting": "[1]; 30 days at 75% relative humidity and 40° C.", "value": "stable"}, {"measurement": "Storage stability", "setting": "[1]; 30 days at 75% relative humidity and 40° C., listed as Magnesium biotinate", "value": "no signs of degradation"}, {"measurement": "Stability on exposure to light", "setting": "[1]; amorphous solid", "value": "stable upon exposure to light"}, {"measurement": "Hygroscopicity", "setting": "[1]; amorphous solid, as measured by weight", "value": "not hygroscopic"}, {"measurement": "Stability on exposure to light", "setting": "[1]; amorphous solid, listed as Magnesium biotinate", "value": "did not change color"}, {"measurement": "Storage stability", "setting": "[1]; room temperature", "value": "stable"}, {"measurement": "Liver cGMP", "setting": "Liver cGMP; 0.01 mg/kg body weight", "value": 8.60, "unit": "pmol/mg protein"}, {"measurement": "Liver cGMP", "setting": "Liver cGMP; 1 mg/kg body weight", "value": 13.04, "unit": "pmol/mg protein"}, {"measurement": "Liver cGMP", "setting": "Liver cGMP; 100 mg/kg body weight", "value": 17.07, "unit": "pmol/mg protein"}, {"measurement": "Solubility", "setting": "[2]; Water", "value": "~10000", "unit": "µg/mL"}, {"measurement": "Solubility", "setting": "[2]; water", "value": "≥ 10000", "unit": "µg/mL"}, {"measurement": "Solubility in water", "setting": "[2]; water", "value": "unexpectedly soluble in water"}, {"measurement": "Solubility in water", "setting": "[2]; water, listed as magnesium biotinate", "value": "significantly improved solubility"}, {"measurement": "Liver Biotin", "setting": "[3]; [5]", "value": 0.03, "unit": "nmol/g"}, {"measurement": "Serum Biotin", "setting": "[3]; [5]", "value": 23.41, "unit": "nmol/L"}, {"measurement": "Brain Biotin", "setting": "[3]; [6]", "value": 0.66, "unit": "nmol/g"}, {"measurement": "Liver Biotin", "setting": "[3]; [6]", "value": 0.71, "unit": "nmol/g"}, {"measurement": "Serum Biotin", "setting": "[3]; [6]", "value": 171.13, "unit": "nmol/L"}, {"measurement": "Brain Biotin", "setting": "[3]; [7]", "value": 1.65, "unit": "nmol/g"}, {"measurement": "Liver Biotin", "setting": "[3]; [7]", "value": 1.62, "unit": "nmol/g"}, {"measurement": "Serum Biotin", "setting": "[3]; [7]", "value": 5161.43, "unit": "nmol/L"}, {"measurement": "Absorption", "setting": "[3]; compared to biotin", "value": "higher absorption"}]}, {"smiles": "[O]=[Mg]", "note": "[MgO, magnesium oxide]", "values": [{"measurement": "Solubility", "setting": "[4]; Benzene", "value": "salts insoluble"}, {"measurement": "Solubility", "setting": "[4]; Dimethyl sulfoxide (DMSO)", "value": "MgO insoluble;"}, {"measurement": "Solubility", "setting": "[4]; Ethanol", "value": "MgO insoluble;"}, {"measurement": "Solubility", "setting": "[4]; Methanol", "value": "MgO insoluble;"}, {"measurement": "Solubility", "setting": "[4]; N,N-Dimethylformamide (DMF)", "value": "MgO insoluble;"}, {"measurement": "Solubility", "setting": "[4]; Water", "value": "MgO insoluble;"}]}, {"smiles": "O=C(O)CCCC[C@@H]1SC[C@@H]2NC(=O)N[C@@H]21", "note": "[Biotin, D-biotin]", "values": [{"measurement": "Liver cGMP", "setting": "Liver cGMP; 0.01 mg/kg body weight", "value": 8.46, "unit": "pmol/mg protein"}, {"measurement": "Liver cGMP", "setting": "Liver cGMP; 1 mg/kg body weight", "value": 12.01, "unit": "pmol/mg protein"}, {"measurement": "Liver cGMP", "setting": "Liver cGMP; 100 mg/kg body weight", "value": 14.68, "unit": "pmol/mg protein"}, {"measurement": "Solubility", "setting": "[4]; Benzene", "value": "Soluble"}, {"measurement": "Solubility", "setting": "[4]; Dimethyl sulfoxide (DMSO)", "value": 4.9, "unit": "g/100 mL"}, {"measurement": "Solubility", "setting": "[4]; Ethanol", "value": 80, "unit": "mg/100 mL"}, {"measurement": "Solubility", "setting": "[4]; Methanol", "value": 80, "unit": "mg/100 mL"}, {"measurement": "Solubility", "setting": "[4]; N,N-Dimethylformamide (DMF)", "value": 170, "unit": "mg/100 mL"}, {"measurement": "Solubility", "setting": "[4]; N,N-dimethylformamide, Merck Index", "value": 1.7, "unit": "mg/mL"}, {"measurement": "Solubility", "setting": "[4]; Water", "value": 22, "unit": "mg/100 mL"}, {"measurement": "Solubility", "setting": "[4]; other common organic solvents, Merck Index", "value": "insoluble"}, {"measurement": "concentration at 30 days", "setting": "in vivo; 0.01 mg/kg", "value": 23.6, "unit": "nM"}, {"measurement": "concentration at 30 days", "setting": "in vivo; 1 mg/kg", "value": 137, "unit": "nM"}, {"measurement": "concentration at 30 days", "setting": "in vivo; 100 mg/kg", "value": 3520, "unit": "nM"}, {"measurement": "Brain Biotin", "setting": "[3]; 0.01 mg/kg body weight", "value": 0.14, "unit": "nmol/g"}, {"measurement": "Liver Biotin", "setting": "[3]; 0.01 mg/kg body weight, listed as B, 0.01 mg/kg", "value": 0.02, "unit": "nmol/g"}, {"measurement": "Brain Biotin", "setting": "[3]; [8]", "value": 0.42, "unit": "nmol/g"}, {"measurement": "Liver Biotin", "setting": "[3]; [8]", "value": 0.56, "unit": "nmol/g"}, {"measurement": "Brain Biotin", "setting": "[3]; [9]", "value": 1.37, "unit": "nmol/g"}, {"measurement": "Liver Biotin", "setting": "[3]; [9]", "value": 1.38, "unit": "nmol/g"}]}]}
